{"source": "patent US20220193439A1", "about": "“TREATMENTS FOR EYE INFECTION” (priority 2020, published 2022)", "format_in_all_cases": "cell-based", "key": {"[1]": {"tested_on": "Pseudomonas aeruginosa", "assay": "riboflavin/UVA laser treatment under normoxic conditions, CFU counting (procedure 2210)", "settings": "UVA laser", "experimental": "According to an example procedure 2210 shown in FIG. 22A, a dilution factor is determined for Pseudomonas aeruginosa bacteria in step 2210a, and the Pseudomonas aeruginosa is loaded into wells in cell culture plate (e.g., a 96-well plate) in step 2210b. […] In particular, a laser beam of ultraviolet A (UVA) light can be applied with a size of approximately 6.5 mm at 8 Hz. A petri dish is inoculated with the mixture from the wells in step 2210e and incubated (e.g., overnight) in step 2210f. After incubation, the effect of the particular treatment parameters is evaluated by counting colony forming units (CFU) in step 2210g."}, "[2]": {"tested_on": "Pseudomonas aeruginosa", "assay": "riboflavin/UVA laser treatment under hyperoxic conditions, CFU counting (procedure 2220)", "settings": "for average cell death percentage / CFU: UVA laser, hyperoxic", "experimental": "According to an example procedure 2220 shown in FIG. 22B, a dilution factor is determined for Pseudomonas aeruginosa bacteria in step 2220a, and the Pseudomonas aeruginosa is loaded into wells in cell culture plate (e.g., a 96-well plate) in step 2220b. […] In particular, a laser beam of UVA light can be applied with a size of approximately 6.5 mm at 8 Hz. A petri dish is inoculated with the mixture from the wells in step 2220e, and the petri dish is incubated (e.g., overnight) in step 2220f. After incubation, the effect of the treatment parameters is evaluated by counting CFU in step 2220g."}, "[3]": {"tested_on": "Pseudomonas aeruginosa", "assay": "riboflavin/UVA LED treatment under normoxic conditions, CFU counting (procedure 2230)", "settings": "0.1% riboflavin, UVA LED", "experimental": "According to an example procedure 2230 shown in FIG. 23C, a dilution factor is determined for Pseudomonas aeruginosa bacteria in step 2230a, and the Pseudomonas aeruginosa is loaded into wells in cell culture plate (e.g., a 96-well plate) in step 2230b. […] For example, the LED light source may emit UVA light at a size of approximately 6.5 mm. A petri dish is inoculated with the mixture from the wells in step 2230e, and the petri dish is incubated (e.g., overnight) in step 2230f. After incubation, the effect of the treatment parameters is evaluated by counting CFU in step 2230g."}, "[4]": {"tested_on": "Pseudomonas aeruginosa bacteria", "assay": "in vitro study of keratitis treatments, petri dish quadrants scanned with laser beam", "settings": "dose approx. 4.5 J/cm^2, irradiance approx. 9 mW/cm^2, ambient air, approx. 70 hours after exposure", "excerpt": "FIG. 13 illustrates an example system 300 for an in vitro study of keratitis treatments. The system 300 includes an illumination system 320 that emits a laser beam that can be scanned across a petri dish containing a sample. The system 300 also includes a UV window 350 that can be selectively employed to transmit UV light in the study. Additionally, the system 300 includes a holder 360 that holds the petri dish. The holder 360 includes tubing to receive and deliver a concentration of O2 to some samples in the study. Furthermore, the system 300 includes a micrometer 370 to determine the position of the holder 360 and thus the petri dish along a vertical axis (z-axis) relative to the illumination system 320.\nFIG. 14A illustrates a petri dish with an example sample 30 for the in vitro study of keratitis treatments employing the system 300. The preparation of the sample 30 involves inoculation with Pseudomonas aeruginosa bacteria (which causes keratitis) and incubation for approximately 48 hours. The resulting bacterial growth in the sample 30 is visible in FIG. 14A. The sample 30 is divided into four quadrants 30a-d to mark areas of the bacterial growth that are exposed to different conditions.\nFIG. 14B illustrates the delivery of the laser beam from the illumination system 320 to selected quadrants of the sample 30. As shown, the laser beam is scanning the second quadrant 30b. […]"}, "[5]": {"tested_on": "bacterial growth", "assay": "riboflavin solution without photoactivation, bacterial growth", "excerpt": "Studies by the present inventors indicate that the antimicrobial effect depends on UV dose and power."}, "[6]": {"settings": "0.1% riboflavin, 2.5 mW/cm^2, 2.5 J/cm^2, n=3"}, "[7]": {"settings": "0.1% riboflavin, 40 mW/cm^2, 40 J/cm^2, n=3"}, "[8]": {"settings": "0.1% riboflavin, irradiance 2.5 mW/cm^2, dose 2.5 J/cm^2, replicates 1-3"}, "[9]": {"settings": "0.1% riboflavin, irradiance 40 mW/cm^2, dose 40 J/cm^2, replicates 1-3"}}, "note": "Several values for one entry are separate records, joined by “and”; a condition that tells them apart may be missing. Equal values may be shown once.", "data": [{"smiles": "Cc1cc2nc3c(=O)[nH]c(=O)nc-3n(C[C@H](O)[C@H](O)[C@H](O)CO)c2cc1C", "note": "[riboflavin]", "values": [{"measurement": "average cell death percentage", "setting": "[1]; [6]", "result": 29.0, "unit": "%"}, {"measurement": "average cell death percentage", "setting": "[1]; [7]", "result": 67.1, "unit": "%"}, {"measurement": "CFU", "setting": "[1]; [8]", "result": "82 CFU and 91 CFU (2×)"}, {"measurement": "CFU", "setting": "[1]; [9]", "result": "21 CFU and 32 CFU and 61 CFU"}, {"measurement": "average cell death percentage", "setting": "[1]; 0.5% riboflavin, 2.5 mW/cm^2, 2.5 J/cm^2, n=3", "result": "−55.4", "unit": "%"}, {"measurement": "average cell death percentage", "setting": "[1]; 0.5% riboflavin, 40 mW/cm^2, 40 J/cm^2, n=3", "result": 26.0, "unit": "%"}, {"measurement": "CFU", "setting": "[1]; 0.5% riboflavin, irradiance 2.5 mW/cm^2, dose 2.5 J/cm^2, replicates 1-3", "result": "86 CFU (2×) and 51 CFU"}, {"measurement": "CFU", "setting": "[1]; 0.5% riboflavin, irradiance 40 mW/cm^2, dose 40 J/cm^2, replicates 1-3", "result": "37 CFU (2×) and 35 CFU"}, {"measurement": "average cell death percentage", "setting": "[2]; [6]", "result": 16.1, "unit": "%"}, {"measurement": "average cell death percentage", "setting": "[2]; [7]", "result": 82.7, "unit": "%"}, {"measurement": "CFU", "setting": "[2]; [8]", "result": "52 CFU and 34 CFU and 12 CFU"}, {"measurement": "CFU", "setting": "[2]; [9]", "result": "9 CFU and 14 CFU and 4 CFU"}, {"measurement": "average cell death percentage", "setting": "[2]; 0.2% riboflavin, 20 mW/cm^2, 20 J/cm^2, n=3", "result": 58.9, "unit": "%"}, {"measurement": "average cell death percentage", "setting": "[2]; 0.2% riboflavin, 40 mW/cm^2, 20 J/cm^2, n=3", "result": 38.1, "unit": "%"}, {"measurement": "CFU", "setting": "[2]; 0.2% riboflavin, irradiance 2.5 mW/cm^2, dose 2.5 J/cm^2, replicates 1-3", "result": "140 CFU and 101 CFU and 114 CFU"}, {"measurement": "CFU", "setting": "[2]; 0.2% riboflavin, irradiance 40 mW/cm^2, dose 20 J/cm^2, replicates 1-3", "result": "78 CFU and 63 CFU and 77 CFU"}, {"measurement": "average cell death percentage", "setting": "[2]; 0.22% riboflavin, 2.5 mW/cm^2, 2.5 J/cm^2, n=3", "result": 13.9, "unit": "%"}, {"measurement": "average cell death percentage", "setting": "[2]; 0.22% riboflavin, 40 mW/cm^2, 40 J/cm^2, n=3", "result": 76.9, "unit": "%"}, {"measurement": "CFU", "setting": "[2]; 0.22% riboflavin, irradiance 2.5 mW/cm^2, dose 2.5 J/cm^2, replicates 1-3", "result": "218 CFU and 187 CFU and 191 CFU"}, {"measurement": "CFU", "setting": "[2]; 0.22% riboflavin, irradiance 40 mW/cm^2, dose 40 J/cm^2, replicates 1-3", "result": "56 CFU and 83 CFU and 33 CFU"}, {"measurement": "effect of supplemental oxygen on bacterial death", "setting": "[2]; riboflavin photoactivated with a scanning laser", "result": "does create additional bacterial death"}, {"measurement": "average cell death percentage", "setting": "[3]; 8.6 mW/cm^2, 8.6 J/cm^2, n=3", "result": -9.3, "unit": "%"}, {"measurement": "average cell death percentage", "setting": "[3]; 75 mW/cm^2, 75 J/cm^2, n=3", "result": 73.6, "unit": "%"}, {"measurement": "CFU", "setting": "[3]; irradiance 8.6 mW/cm^2, dose 8.6 J/cm^2, replicates 1-3", "result": "156 CFU and 94 CFU and 124 CFU"}, {"measurement": "CFU", "setting": "[3]; irradiance 75 mW/cm^2, dose 75 J/cm^2, replicates 1-3", "result": "26 CFU and 29 CFU and 35 CFU"}, {"measurement": "bacteria in quadrants that received riboflavin and photoactivating UV light", "setting": "[4]", "result": "effectively eliminated"}, {"measurement": "effect of riboflavin solution on its own on bacterial growth", "setting": "[5]", "result": "does not directly inhibit bacterial growth"}]}]}
